One block for each compound: values may come before it.
Tests used:
[1] = biological target: MNK1 (Homo sapiens, UniProt Q9BUB5); assay: MNK1 kinase inhibition assay (LANCE Ultra kinase activity assay, PerkinElmer); format: biochemical; conditions: 450 μM ATP; for inhibition at 1 µM: inhibition rate at 1000 nM compound, 60 min, 25° C., read-out: Inhibitory activity(1 μM) MNK1
Description: (§1) MNK1 and MNK2 kinase inhibition assays were performed using LANCE Ultra kinase activity assay developed by PerkinElmer. […] The test steps are as follows: At 25° C., 1.00 ng MNK1 or 0.05 ng MNK2 was prepared with different concentrations (10000, 1000, 100, 10, 1 nM) of the tested compound to form a total volume of 10 μL reaction mixture (MNK1: 12.5 nM CREB, 450 μM ATP, 2 mM DTT, 1× buffer; MNK2: 12.5 nM CREB, 100 μM ATP, 2 mM DTT, 1×buffer), and incubation for 60 min. The reaction was terminated by adding 5 μL EDTA/Detection buffer and 5 μL Eu-CREB/Detection buffer. The ratio of HTRF signals at 615 nm and 665 nm was detected after 60 min of incubation. The inhibition rate was calculated by measuring the compounds at 1000 nM.
(§2) Then five different concentrations (10000, 1000, 100, 10, 1 nM) of the tested compounds were measured, and the IC50 value was calculated according to the inhibition rate fitting curve.

[2] = biological target: MNK2 (Homo sapiens, UniProt Q9HBH9); assay: MNK2 kinase inhibition assay (LANCE Ultra kinase activity assay, PerkinElmer); format: biochemical; conditions: 100 μM ATP; for inhibition at 1 µM: inhibition rate at 1000 nM compound, 60 min, 25° C., read-out: Inhibitory activity(1 μM) MNK2
MNK2, sequence (Q9HBH9 whole entry): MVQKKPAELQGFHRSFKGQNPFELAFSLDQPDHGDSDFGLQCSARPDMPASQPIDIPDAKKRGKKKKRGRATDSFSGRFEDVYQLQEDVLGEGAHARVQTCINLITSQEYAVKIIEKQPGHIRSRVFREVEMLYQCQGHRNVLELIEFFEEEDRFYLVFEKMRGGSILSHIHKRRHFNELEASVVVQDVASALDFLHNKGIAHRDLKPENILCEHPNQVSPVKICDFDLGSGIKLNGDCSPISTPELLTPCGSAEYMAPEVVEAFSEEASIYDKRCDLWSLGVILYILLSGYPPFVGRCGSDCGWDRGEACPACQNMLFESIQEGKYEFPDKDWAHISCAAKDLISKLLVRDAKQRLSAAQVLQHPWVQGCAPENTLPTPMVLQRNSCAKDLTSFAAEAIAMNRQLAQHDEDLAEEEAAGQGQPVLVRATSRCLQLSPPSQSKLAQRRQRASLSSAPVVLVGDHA
Description: as §1, §2

MNK1, sequence (Q9BUB5 whole entry): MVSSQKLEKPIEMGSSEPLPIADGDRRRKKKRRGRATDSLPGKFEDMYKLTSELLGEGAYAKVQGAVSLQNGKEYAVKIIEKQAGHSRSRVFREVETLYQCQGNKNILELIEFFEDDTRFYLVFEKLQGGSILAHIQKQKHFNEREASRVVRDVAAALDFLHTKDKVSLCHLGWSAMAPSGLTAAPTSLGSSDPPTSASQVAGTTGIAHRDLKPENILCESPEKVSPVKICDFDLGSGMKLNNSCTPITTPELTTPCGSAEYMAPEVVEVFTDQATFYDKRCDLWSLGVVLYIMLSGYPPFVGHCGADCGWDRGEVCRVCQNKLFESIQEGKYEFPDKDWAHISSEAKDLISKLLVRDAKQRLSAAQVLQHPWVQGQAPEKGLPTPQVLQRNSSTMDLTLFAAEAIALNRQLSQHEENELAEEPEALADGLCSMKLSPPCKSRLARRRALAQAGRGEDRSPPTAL

Compound: N#Cc1ccc(-c2cnc3sc(-c4ccc(C(=O)NCCCCCO)cc4)nn23)cc1 [Compound 42, 4-(5-(4-cyanophenyl)imidazo[2,1-b][1,3,4]thiadiazol-2-yl)-N-(5-hydroxypentyl)benzamide]
IC50 ([1]; five concentrations 10000-1 nM): < 50 nM
inhibition at 1 µM [1]: > 75%
IC50 ([2]; five concentrations 10000-1 nM): < 50 nM
inhibition at 1 µM [2]: > 75%

Compound: N#Cc1ccc(-c2csc3nc(-c4ccc(C(=O)N5CCOCC5)cc4)cn23)cc1 [Compound 43, 4-(6-(4-(morpholine-4-carbonyl)phenyl)imidazo[2,1-b]thiazol-3-yl)benzonitrile]
inhibition at 1 µM [1]: 25 to 50%
inhibition at 1 µM [2]: 25 to 50%

Compound: COc1ccc(-c2csc3nc(-c4ccc(C(=O)N5CCOCC5)cc4)cn23)cc1 [Compound 45, (4-(3-(4-methoxyphenyl)imidazo[2,1-b]thiazol-6-yl)phenyl)(morpholino)methanone]
inhibition at 1 µM [1]: 25 to 50%
inhibition at 1 µM [2]: 25 to 50%

Compound: O=C(c1ccc(-c2cn3c(-c4ccc(C(F)(F)F)cc4)csc3n2)cc1)N1CCOCC1 [Compound 46, morpholino(4-(3-(4-(trifluoromethyl)phenyl)imidazo[2,1-b]thiazol-6-yl)phenyl)methanone]
inhibition at 1 µM [1]: 25 to 50%
inhibition at 1 µM [2]: 25 to 50%

Compound: O=C(c1ccc(-c2cn3c(-c4ccc(Cl)cc4)csc3n2)cc1)N1CCOCC1 [Compound 47, (4-(3-(4-chlorophenyl)imidazo[2,1-b]thiazol-6-yl)phenyl)(morpholino)methanone]
inhibition at 1 µM [1]: 25 to 50%
inhibition at 1 µM [2]: 25 to 50%

Compound: CN1CCN(C(=O)c2ccc(-c3cn4c(-c5ccc(C#N)cc5)csc4n3)cc2)CC1 [Compound 48, 4-(6-(4-(4-methylpiperazine-1-carbonyl)phenyl)imidazo[2,1-b]thiazol-3-yl)benzonitrile]
inhibition at 1 µM [1]: 25 to 50%
inhibition at 1 µM [2]: 25 to 50%

Compound: CN1CCN(C(=O)c2ccc(-c3cn4c(-c5ccc(C(F)(F)F)cc5)csc4n3)cc2)CC1 [Compound 50, (4-methylpiperazin-1-yl)(4-(3-(4-(trifluoromethyl)phenyl)imidazo[2,1-b]thiazol-6-yl)phenyl)methanone]
inhibition at 1 µM [1]: 25 to 50%
inhibition at 1 µM [2]: 25 to 50%

Compound: CN1CCN(C(=O)c2ccc(-c3cn4c(-c5ccc(Cl)cc5)csc4n3)cc2)CC1 [Compound 51, (4-(3-(4-chlorophenyl)imidazo[2,1-b]thiazol-6-yl)phenyl)(4-methylpiperazin-1-yl)methanone]
inhibition at 1 µM [1]: 25 to 50%
inhibition at 1 µM [2]: 25 to 50%

Compound: O=C(c1ccc(-c2cn3c(-c4ccc(F)cc4)csc3n2)cc1)N1CCC(N2CCOCC2)CC1 [Compound 52, 6-(4-(4-morpholinepiperidinebasecarbonyl)phenyl)-3-(4-fluorinatedphenyl) imidazole [2,1-b]thiazole compounds]
inhibition at 1 µM [1]: 25 to 50%
inhibition at 1 µM [2]: 25 to 50%

Further lines, results first:

inhibition at 1 µM [1]: 25 to 50%
inhibition at 1 µM [2]: 25 to 50%
Compound: O=C(c1ccc(-c2cn3c(-c4ccc(F)cc4)csc3n2)cc1)N1CCOCC1 [Compound 44, (4-(3-(4-fluorophenyl)imidazo[2,1-b]thiazol-6-yl)phenyl)(morpholino)methanone]

inhibition at 1 µM [1]: 25 to 50%
inhibition at 1 µM [2]: 25 to 50%
Compound: CN1CCN(C(=O)c2ccc(-c3cn4c(-c5ccc(F)cc5)csc4n3)cc2)CC1 [Compound 49, (4-(3-(4-fluorophenyl)imidazo[2,1-b]thiazol-6-yl)phenyl)(4-methylpiperazin-1-yl)methanone]

inhibition at 1 µM [1]: 25 to 50%
inhibition at 1 µM [2]: 25 to 50%
Compound: CN(C)C1CCN(C(=O)c2ccc(-c3cn4c(-c5ccc(F)cc5)csc4n3)cc2)CC1 [Compound 53, (4-(dimethylamino)piperidin-1-yl)(4-(3-(4-fluorophenyl)imidazo[2,1-b]thiazol-6-yl)phenyl)methanone]

inhibition at 1 µM [1]: 25 to 50%
inhibition at 1 µM [2]: 25 to 50%
Compound: CN(C)C1CCN(C(=O)c2ccc(-c3cn4c(-c5ccc(C(F)(F)F)cc5)csc4n3)cc2)CC1 [Compound 54, (4-(dimethylamino)piperidin-1-yl)(4-(3-(4-(trifluoromethyl)ph-enyl)imidazo [2,1-b]thiazol-6-yl)phenyl)methanone]

inhibition at 1 µM [1]: 25 to 50%
inhibition at 1 µM [2]: 25 to 50%
Compound: CN(C)C1CCN(C(=O)c2ccc(-c3cn4c(-c5ccc(Cl)cc5)csc4n3)cc2)CC1 [Compound 55, (4-(3-(4-chlorophenyl)imidazo[2,1-b]thiazol-6-yl)phenyl)(4-(dimethylamino)piperidin-1-yl)methanone]
